Source: patent US20140288077A1, “SUBSTITUTED 4-PHENOXYPHENOL ANALOGS AS MODULATORS OF PROLIFERATING CELL NUCLEAR ANTIGEN ACTIVITY” (ST. JUDE CHILDREN'S RESEARCH HOSPITAL, priority 2011, published 2014)

Tests used:
U2OS cells [1] = assay: γH2AX staining by flow cytometry, T2AA and cisplatin; conditions: single agent, 18 h, FIG. 28A
U2OS cells [2] = assay: U2OS cell viability with cisplatin and test compound (AlamarBlue, 4 days); type: cell-based; conditions: cisplatin alone up to 10 μM, FIG. 21
Protocol: U2OS cells were cultured in DMEM in a 384-well plate (3000 cells/20 μL per well), treated with indicated dilution of cisplatin (see FIG. 21) and each indicated test compound (15 μM; 20 μL per well in DMEM), and cultured for 4-days. AlamarBlue reagent (Invitrogen, 4 μL per well) was added and signals were read per manufacturer's recommendation. Signals of wells contains no cells and cells with no drugs served as 0% and 100% viability, respectively.

U2OS cells [3] = assay: Growth of cells after treatment with cisplatin and T2AA and release (Alamar Blue); conditions: cisplatin alone up to 10 μM, FIG. 28B
[4] = target: PCNA/full-length p21 interaction (Homo sapiens, UniProt P12004); assay: Pull-down competition assay: PCNA captured by immobilized full-length p21-His6; conditions: FIG. 5, gel electrophoresis
PCNA/full-length p21 interaction, sequence (P12004 whole entry): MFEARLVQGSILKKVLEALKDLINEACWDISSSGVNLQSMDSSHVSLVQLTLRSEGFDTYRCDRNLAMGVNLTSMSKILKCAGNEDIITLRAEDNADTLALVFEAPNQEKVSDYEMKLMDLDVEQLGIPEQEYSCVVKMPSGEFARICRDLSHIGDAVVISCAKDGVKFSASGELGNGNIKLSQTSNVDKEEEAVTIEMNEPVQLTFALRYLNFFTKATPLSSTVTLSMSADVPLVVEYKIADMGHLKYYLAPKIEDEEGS

[5] = target: T1, human PCNA recombinant protein (Homo sapiens, UniProt P12004); assay: Fluorescent polarization assay: competition with 5-FAM-labeled PL peptide for PCNA; type: binding; conditions: Table 2; inhibition of FAM-PL peptide binding to PCNA; read-out: IC50
T1 construct: The full length human PCNA; made in house; host or cells: Escherichia coli BL21(DE3)
T1 sequence (P12004 whole entry): as above
Source text: To determine the binding of the disclosed compounds to the human PCNA recombinant protein, a fluorescence polarization assay was employed. The assay is based on competition between a fluorescent tracer and increasing amounts of competing compound, i.e. a disclosed compound, determined as fluorescence polarization intensity (mP). The fluorescent tracer was 5-carboxyfluorescein (5-FAM) labeled PL peptide (“FAM-PL”). […] PCNA was a recombinant protein purified using standard methods known to one skilled in the art using an expression construct obtained from Dr. Toshiki Tsurimoto, Kyusyu University, Japan.
The volumes of PCNA and FAM-PL were adjusted to ensure that the final concentration of PCNA was 200 nM and FAM-PL was 10 nM. Assays were carried out in 384 well plates in a total volume of about 20-30 μL. […] Fluorescence measurements were made immediately after dilution in the assay plate. […] FP values (P) were calculated in millipolarization units (mP),
where I∥ and I⊥ are the emission intensities recorded, respectively, in the parallel and perpendicular directions relative to the plane of excitation polarization, after background intensity correction. G-factor values (G) for the fluorescein spectral window were measured using 1 nM fluorescein.
Alternatively, the fluorescent polarization assay can be carried out as described in the following. […] Briefly, 20 μl of the assay solution was transferred into each well of a black 384-well plate using Wellmate (Matrix). […] The negative control in each plate was DMSO, whereas the positive control was unlabeled PL-peptide as a self-competitor. […] FP values were calculated in millipolarization units. All data processing was performed using in-house programs in the Pipeline Pilot (Accelrys, version 7.0.1). The quality of the primary screen was assessed by Z-prime and other screening quality metrics.

HeLa cells [6] = assay: CellTiter-Glo cell viability assay with cisplatin; type: cell-based; conditions: increasing concentration of compound, 24 or 48 hours, FIG. 9
Protocol: Cell viability was determined using CellTiter-Glo® Luminescent Cell Viability Assay (Promega Corporation, Madison, Wis.). Cell viability assays were carried out in 384-well plates after cells were treated for 24 or 48 hours with the disclosed compounds.

HeLa cells [7] = assay: Cisplatin-induced DNA double-strand breaks (gH2Ax positive cells) by flow cytometry; type: cell-based; conditions: with cisplatin, dose-dependent, FIG. 7
[8] = system: DNA polymerase present in a CHO lysate; assay: In vitro translesion DNA synthesis past a cisplatin adduct; type: biochemical; conditions: FIG. 8
Source text: In a further experiment, an in vitro […] DNA polymerization assay was used (e.g. see Hoffman, et al., Proc Natl Acad Sci USA (1996) 93(24), 13766-9). The assay measures the ability of DNA polymerase present in a CHO lysate to catalyze synthesis of a DNA strand past a cisplatin adduct in an oligonucleotide template. The data in FIG. 8 outline the assay approach in the upper panel, and the gel electrophoresis data are shown in the lower panel. […] The negative control lanes (right side of gel image showing the levels of DMSO contributed by the compound) show not effect on DNA synthesis.

Row | SMILES | IC50 [5] | further results
1 | N.N.[Cl][Pt][Cl] [cisplatin, reference compound] |  | γH2AX level (DNA damage response) (U2OS cells [1]): significantly induced γH2AX; U2OS cell growth (U2OS cells [2]): not significantly affected; U2OS cell growth (U2OS cells [3]): not significantly affected
2 | CS(=O)(=O)NC(=O)CCc1cc(I)c(Oc2ccc(O)cc2)c(I)c1 [MLAE-038, 3-(4-(4-hydroxyphenoxy)-3,5-diiodophenyl)-N-(methylsulfonyl)propanamide] | 20 µM | level of PCNA captured by His6 p21 [4]: decreased significantly
3 | N[C@H](CO)Cc1cc(I)c(Oc2ccc(O)cc2)c(I)c1 [(S)-T2AA, (S)-4-(4-(2-amino-3-hydroxypropyl)-2,6-diiodophenoxy)phenol] |  | cell viability for a given concentration of cisplatin (HeLa cells [6]): greater loss of cell viability; cisplatin-induced DNA double-strand breaks (gH2Ax positive cells) (HeLa cells [7]): at least a doubling; DNA synthesis past the cisplatin adduct (TLS product) [8]: inhibits
4 | COc1ccc(Oc2c(I)cc(CCC(=O)N3CCCCC3)cc2I)cc1 [MLAE-039, 3-(3,5-Diiodo-4-(4-methoxyphenoxy)phenyl)-1-(piperidin-1-yl)propan-1-one] | 9.5 µM | 
5 | O=C(Cc1cc(I)c(Oc2ccc(O)c(I)c2)c(I)c1)NCc1ccccc1 [MLAE-029-4, N-Benzyl-2-(4-(4-hydroxy-3-iodophenoxy)-3,5-diiodophenyl)acetamide] | > 50 µM | 
6 | Cc1cc(CCC(=O)O)cc(C)c1Oc1ccc(O)cc1 [NF021111, 3-(4-(4-hydroxyphenoxy)-3,5-dimethylphenyl)propanoic acid] | > 50 µM | 
7 | CCCOCCNC(=O)CCc1cc(I)c(Oc2ccc(O)cc2)c(I)c1 [MLAE-054-3, 3-(4-(4-Hydroxyphenoxy)-3,5-diiodophenyl)-N-(2-propoxyethyl)propanamide] | 8.3 µM | 
8 | O=C1CN(C(=O)Cc2cc(I)c(Oc3ccc(O)cc3)c(I)c2)CCN1 [MLAE-048, 4-(2-(4-(4-Hydroxyphenoxy)-3,5-diiodophenyl)acetyl)piperazin-2-one] | 9.1 µM | 

The remaining compounds from weak to strong by IC50 [5], led by results:

Row | IC50 [5] | SMILES | further results
9 | 7.5 µM | CN(C)C(=O)Cc1cc(I)c(Oc2ccc(O)cc2)c(I)c1 [MLAG-066-2, 2-(4-(4-hydroxyphenoxy)-3,5-diiodophenyl)-N,N-dimethylacetamide] | 
10 | 6.3 µM | O=C(Cc1cc(I)c(Oc2ccc(O)cc2)c(I)c1)N1CCOCC1 [MLAE-047, 2-(4-(4-hydroxyphenoxy)-3,5-diiodophenyl)-1-morpholinoethanone] | 
11 | 5.7 µM | O=C1NC[C@H](Cc2cc(I)c(Oc3ccc(O)cc3)c(I)c2)N1 [MLAG-060, (S)-4-(4-(4-hydroxyphenoxy)-3,5-diiodobenzyl)imidazolidin-2-one] | 
12 | 1.4 µM | N[C@H](CNC(=O)CO)Cc1cc(I)c(Oc2ccc(O)cc2)c(I)c1 [MLAF-083, (S)—N-(2-amino-3-(4-(4-hydroxyphenoxy)-3,5-diiodophenyl)propyl)-2-hydroxyacetamide] | 
13 | 1.3 µM | CCCCCCNC(=O)NC[C@@H](N)Cc1cc(I)c(Oc2ccc(O)cc2)c(I)c1 [MLAF-086, (S)-1-(2-amino-3-(4-(4-hydroxyphenoxy)-3,5-diiodophenyl)propyl)-3-hexylurea] | 
14 | 1 µM | N[C@H](CNC(=O)NCc1ccccc1)Cc1cc(I)c(Oc2ccc(O)cc2)c(I)c1 [MLAF-085, (S)-1-(2-amino-3-(4-(4-hydroxyphenoxy)-3,5-diiodophenyl)propyl)-3-benzylurea] | 
15 | 0.27 µM | Oc1ccc(Oc2c(I)cc(C[C@H]3C[NH2+][Pt-2]([Cl])([Cl])[NH2+]3)cc2I)cc1 [SWUA_018, Dichloro((S)-4-(4-(2,3-diaminopropyl)-2,6-diiodophenoxy)phenol)platinum(II)] | 
